Activity calls are given as the source filed them. The rule behind the calls is not given here.
What was measured:
HCT-116 [1] = test: Cytotoxicity against human HCT116 cells assessed as cell viability at 0.1 to 100 uM after 48 hrs by cell titre glo assay; format: functional, cell-based
[2] = Cytotoxicity against human PNT2 cells assessed as cell viability after 72 hrs by cell titre glo assay; format: cell-based; conditions: pnt2, 72 h
[3] = Cytotoxicity against human DK1 cells assessed as growth inhibition at 25 uM after 20 mins by green fluorescence assay relative to control; format: functional; conditions: DK1, 20 min, read-out: GI
HCT-116 [4] = test: Cytotoxicity against human HCT116 cells assessed as cell survival at 25 uM after 72 hrs by cell titre glo assay relative to control; format: functional; conditions: HCT-116, 72 h, read-out: Survival
HCT-116 [5] = test: Cytotoxicity against human HCT116 cells assessed as cell viability after 72 hrs by cell titre glo assay; format: functional, cell-based
[6] = Cytotoxicity against human PNT2 cells assessed as cell viability at 50 uM after 72 hrs by cell titre glo assay; format: cell-based; conditions: pnt2, 72 h
HCT-116 [7] = test: Cytotoxicity against human HCT116 cells assessed as cell viability at 50 uM after 72 hrs by cell titre glo assay relative to control; format: functional; conditions: HCT-116, 72 h, read-out: Activity
[8] = Cytotoxicity against human PNT2 cells assessed as growth inhibition at 0.1 to 10 uM after 72 hrs by cell titre glo assay; format: cell-based; conditions: pnt2, 72 h
[9] = Cytotoxicity against human DK1 cells assessed as growth inhibition at 50 uM after 20 mins by green fluorescence assay relative to control; format: functional; conditions: DK1, 20 min, read-out: GI

SMILES	Activity (HCT-116 [1])	Activity [2]	inhibition of growth at 25 µM [3] [%]	Activity (HCT-116 [5])	further results
OC(c1cc(-c2ccccc2)nc2c1ccc1ccccc12)C1CCCCN1 (configuration not stated)	Active	Dose-dependent effect	50	Dose-dependent effect	viability at 25 µM (HCT-116 [4]): 0%
Cc1cc(C)c2nc3c(c(C(O)C4CCCCN4)c2c1)CC/C3=C\c1ccc(Cl)cc1 (configuration not stated)	Active	–	–	–	Activity [6]: Non-toxic; viability at 50 µM (HCT-116 [7]): 50%
NS(=O)(=O)c1cc2c(cc1Cl)NC(Cc1ccccc1)NS2(=O)=O (configuration not stated)	inactive	–	–	–	–
COc1ccc2nc3cc(Cl)ccc3c(Nc3ccc(O)c(CN4CCN(C)CC4)c3)c2c1	Active	Dose-dependent effect	50	Dose-dependent effect	viability at 25 µM (HCT-116 [4]): 18%
CC(C)c1ccc(C(C2=C(O)C3C=CC=CC3OC2=O)c2c(O)c3ccccc3oc2=O)cc1 (configuration not stated)	Active	–	–	–	–
OC(c1c(Cl)cc(Cl)c2nc(C34CC5CC(CC(C5)C3)C4)ccc12)C1CCCCN1 (configuration not stated)	Active	–	–	–	growth inhibition (GI) [8]: Toxic
NC(CSC1(c2ccc(Cl)cc2)c2ccccc2-c2ccccc21)C(=O)O (configuration not stated)	Active	Dose-dependent effect	35	Dose-dependent effect	inhibition of growth at 50 µM [9]: 50%
O=C1c2ccccc2NC(c2cc(Cl)cc(Cl)c2O)N1CCc1ccccn1 (configuration not stated)	Active	–	–	–	Activity [6]: Non-toxic; viability at 50 µM (HCT-116 [7]): 50%
CC[C@@]1(O)C(=O)OCc2c1cc1n(c2=O)Cc2cc3c(CN(C)C)c(O)ccc3nc2-1 [TOPOTECAN]	Active	–	–	–	growth inhibition (GI) [8]: Toxic
